{"source": "paper PMC5554220", "about": "“A Novel Aldosterone Antagonist Limits Renal Injury in 5/6 Nephrectomy” (Scientific Reports, 2017)", "key": {"[1]": {"target": "T1, human androgen receptor (hAR) (Homo sapiens, UniProt P10275, DEL79-80/DUP470-473/R9G)", "T1 construct": "made in house; host or cells: Sf9 insect cells (baculovirus)", "T1 sequence (P10275 with tags, fused parts or gaps R9G/DEL79-80/DUP470-473)": "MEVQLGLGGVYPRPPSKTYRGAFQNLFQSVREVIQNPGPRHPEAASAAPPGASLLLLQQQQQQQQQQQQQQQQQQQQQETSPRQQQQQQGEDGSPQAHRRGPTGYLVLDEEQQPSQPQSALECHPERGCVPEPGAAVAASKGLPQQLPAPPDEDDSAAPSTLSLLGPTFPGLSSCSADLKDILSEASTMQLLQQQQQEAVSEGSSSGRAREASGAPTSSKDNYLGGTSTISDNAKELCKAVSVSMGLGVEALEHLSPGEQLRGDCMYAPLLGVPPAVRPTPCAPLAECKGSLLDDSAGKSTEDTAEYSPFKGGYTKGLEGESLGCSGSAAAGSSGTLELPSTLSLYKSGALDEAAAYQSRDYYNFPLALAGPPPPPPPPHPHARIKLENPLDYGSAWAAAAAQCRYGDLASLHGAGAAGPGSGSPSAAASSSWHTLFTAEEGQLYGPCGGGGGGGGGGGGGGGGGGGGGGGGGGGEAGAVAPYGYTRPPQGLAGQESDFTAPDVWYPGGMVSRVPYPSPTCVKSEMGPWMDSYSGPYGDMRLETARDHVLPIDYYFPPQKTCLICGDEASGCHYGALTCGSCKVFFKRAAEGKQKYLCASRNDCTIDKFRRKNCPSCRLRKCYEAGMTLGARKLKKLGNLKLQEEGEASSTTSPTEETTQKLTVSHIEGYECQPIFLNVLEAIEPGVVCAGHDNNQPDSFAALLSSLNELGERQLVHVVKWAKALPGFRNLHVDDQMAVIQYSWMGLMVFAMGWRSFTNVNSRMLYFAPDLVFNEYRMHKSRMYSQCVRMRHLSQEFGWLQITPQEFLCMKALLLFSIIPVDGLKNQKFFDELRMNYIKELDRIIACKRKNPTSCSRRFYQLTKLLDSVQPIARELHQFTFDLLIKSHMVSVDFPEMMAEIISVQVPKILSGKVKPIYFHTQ", "assay": "Radioligand binding, [3H]mibolerone, hAR expressed in Sf9", "settings": "hAR expressed in Sf9; [3H]mibolerone 0.3 nM; read-out: Mean Ki ± SEM hAR", "procedure": "(§1) Full-length human mineralocorticoid receptor (hMR) to be used in radioligand binding was isolated from a human kidney cDNA library (Clontech, Palo Alto, CA). […] The hMR, hPR, and hAR cDNAs were subcloned in the eukaryotic expression vector pcDNA3. Methods for the expression of functionally active hMR, hAR and hPR utilizing the baculovirus expression system were described previously, [31].\n(§2) Affinity of ligands to the soluble receptor was determined using vacuum filtration methods, preparing soluble receptors in 96-well Falcon polystyrene plates (BD Biosciences, Bedford, MA) in a total volume of 250 μl. […] Binding studies for ligands for hPR and hAR were determined using [1,2,6,7-3H(N)] […] Specific binding of 3H-progesterone for hPR and 3H-mibolerone for hAR was determined in the presence and absence of 1 μM mifepristone. Inhibition constants (Ki), were determined either from the Cheng-Prusoff equation[32], or directly using non-linear regression curve fitting to a three-parameter one-site competitive equation. […] Protein was measured using colorimetric detection and quantification of bicinchoninic acid (BCA Protein Assay, Pierce, Rockford, IL). […] Concentration response curves were analyzed statistically using a four-parameter logistic equation (Hill equation for sigmoid curves). […]"}, "[2]": {"test_system": "human androgen receptor (hAR)", "assay": "Radioligand binding, [3H]mibolerone, hAR expressed in Sf9", "settings": "selectivity", "procedure": "as §1, §2"}, "[3]": {"target": "T2, human progesterone receptor (hPR) (Homo sapiens, UniProt P06401)", "T2 sequence (P06401 679-933 limits assumed)": "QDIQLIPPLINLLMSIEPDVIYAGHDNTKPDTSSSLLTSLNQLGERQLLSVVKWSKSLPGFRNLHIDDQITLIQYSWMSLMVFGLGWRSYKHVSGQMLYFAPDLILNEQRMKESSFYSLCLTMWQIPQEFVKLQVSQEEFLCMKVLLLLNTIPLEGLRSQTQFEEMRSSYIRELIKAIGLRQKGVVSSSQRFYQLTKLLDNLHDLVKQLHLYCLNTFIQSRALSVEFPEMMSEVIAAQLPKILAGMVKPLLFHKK", "assay": "Radioligand binding, [3H]progesterone, hPR expressed in Sf9", "procedure": "as §1, §2"}, "[4]": {"assay": "Permeability (data not shown)", "type": "in vitro ADME"}}}
{"smiles": "O=c1[nH]c2ccc(/C=C3\\c4ccc(F)cc4COc4cc(F)ccc43)cc2[nH]1", "note": "[Ly]", "values": [{"measurement": "Ki", "setting": "[1]", "result": "323 ± 101", "unit": "nM"}, {"measurement": "Ratio of Ki's hAR: hMR", "setting": "[2]", "result": 202}, {"measurement": "Ki", "setting": "[3]; hPR expressed in Sf9, [3H]progesterone 0.5 nM, read-out: Mean Ki ± SEM hPR", "result": "92 ± 19", "unit": "nM"}, {"measurement": "Ratio of Ki's hPR: hMR", "setting": "[3]; selectivity", "result": 58}, {"measurement": "Permeability", "setting": "[4]", "result": "good permeability"}]}
